Assay [1] relates to db/db mice. Briefly: Fed blood glucose during treatment of db/db mice. It is filed as in vivo, mouse. The following applies: s.c. once daily (AVE0010 0.05, FGF-21 0.75, combination 0.75+0.05 mg·kg−1·day−1), up to 4 weeks, FIG. 6. The method, then: (§1) Female db/db mice (BKS.Cg-m +/+ Leprdb/J, age of 6 weeks) were treated with vehicle (PBS), 0.05 mg·kg^−1·day^−1 AVE0010, 0.75 mg·kg^−1·day^−1 recombinant human FGF-21 (SEQ ID NO: 2) or a combined dose of FGF-21 (SEQ ID NO: 2) and AVE0010 (SEQ ID NO:9), (0.75+0.05 mg·kg^−1·day^−1) subcutaneously once daily. Mice were fed ad libitum. Before the first treatment, after one week and 4 weeks blood glucose and HbA1c were measured under fed conditions. After 21 days of treatment an oral glucose tolerance test (OGTT) was initiated. Fasted mice were orally challenged with 2 g·kg^−1 glucose solution and blood glucose was measured at indicated time points.

Assay [2] relates to db/db mice. Briefly: Oral glucose tolerance test (OGTT) in treated db/db mice. The following applies: after 21 days s.c. once daily (AVE0010 0.05, FGF-21 0.75, combination 0.75+0.05 mg·kg−1·day−1), fasted, 2 g·kg−1 oral glucose, vs vehicle treated obese control, FIG. 5. It is filed as in vivo, mouse. The method, then: as §1
Assay [3] relates to Type 2 diabetic patients. Conditions: cited from earlier work; for fasting hyperglycaemia: doses elevating plasma concentrations to approximately 3-4 fold physiological postprandial levels, Type 2 diabetic patients.
Setting [4] is: human subjects with Type 2 diabetes.

No end group written: not given here.

Take “AVE0010: GLP-1R agonist peptide, amino acid sequence SEQ ID NO: 9 [reference compound]”: the blood glucose entry in assay [1] is listed as “inhibition of blood glucose increase”. For the same substance, the “glucose tolerance (OGTT)” value in assay [2] is given as “small improvement in glucose tolerance”. For the substance “GLP-1(7-27): bioactive GLP-1 form as printed in b13 (HAEGTFTSDVSSYLEGQAAKE; Glucagon-like peptide 1; UniProt P01275 98-118, looked up, fragment)”, the fasting hyperglycaemia result in assay [3] is reported as “fully normalizes”. Consider “GLP-1(7-36 amide): bioactive GLP-1, amino acid sequence SEQ ID NO: 4 (HAEGTFTSDVSSYLEGQAAKEFIAWLVKGR-NH2)”, for which the fasting hyperglycaemia entry in assay [3] is on record as “fully normalizes”. “GLP-1: gut peptide glucagon-like peptide-1, an incretin hormone (HAEGTFTSDVSSYLEGQAAKEFIAWLVKGR; ends and bridges not checked; UniProt P01275 98-127, looked up)”: in assay [3] (setting [4]), the blood glucose result is “reduces” and the insulin secretion entry is “stimulates”.

The record behind these values is patent US20160279199A1, “PHARMACEUTICAL COMPOSITION FOR TREATING A METABOLIC SYNDROME” (Sanofi, priority 2010, published 2016).
